Data: patent US11596639B2, “Substituted indole Mcl-1 inhibitors” (Vanderbilt University, priority 2016, dated 2023)
Like-named read-outs stand apart in the source and are kept apart here.

How the values were obtained:
Mcl-1 = Mcl-1 (Homo sapiens (Human), UniProt Q07820); test: TR-FRET binding assay, FITC-Bak peptide and MBP-tagged Mcl-1; settings: read-out: Ki for Inhibition of Mcl-1 by TR-FRET assay
Experimental: Compounds are diluted in DMSO in a 16-point, semilog serial dilution scheme. […] The plate was mixed and incubated for 3 hours at room temperature. […] TR-FRET signal is plotted and IC50 and Ki values are calculated in the same manner as the fluorescence polarization anisotropy based competition assays.

[1] = test system: H929 human cancer cell lines; test: Cellular viability / proliferation (Cell TiterGlo, 72 h); type: cell-based
Method in brief: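 Cells were seeded at 1,000 cells/well in medium with 10% FBS and dosed 24 h later with a 2-fold serial dilution of compound (top concentration 50 μM, final DMSO <1%).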

[2] = Homo sapiens, NCI-H929, 72 h, read-out: GI50 on cellular proliferation of H929 human cancer cell lines, H929 cells, 72 h, Cell TiterGlo, 10% FBS

Mcl-1, sequence (Q07820 172-327): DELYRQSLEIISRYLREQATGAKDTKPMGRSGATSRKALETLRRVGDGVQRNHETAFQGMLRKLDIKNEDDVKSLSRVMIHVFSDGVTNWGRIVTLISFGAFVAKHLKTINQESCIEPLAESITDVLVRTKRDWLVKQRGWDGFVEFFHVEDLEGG

CCN(C)c1cc(N2C[C@@H](C)n3c(c(CCCOc4cc(C)c(Cl)c(C)c4)c4ccc(Cl)c(-c5c(C)nn(C)c5C)c43)C2=O)c2c(c1)cc(C(=O)O)n2C [Example 680, (R)-7-(7-chloro-10-(3-(4-chloro-3,5-dimethylphenoxy)propyl)-4-methyl-1-oxo-6-(1,3,5-trimethyl-1H-pyrazol-4-yl)-3,4-dihydropyrazino[1,2-a]indol-2(1H)-yl)-5-(ethyl(methyl)amino)-1-methyl-1H-indole-2-carboxylic acid]
Ki (Mcl-1): 0.00033 µM | GI50 [1, 2]: 0.61 µM

COc1cc(N2C[C@@H](C)n3c(c(CCCOc4cc(C)c(Cl)c(C)c4)c4ccc(Cl)c(-c5c(C)nn(C)c5C)c43)C2=O)c2c(c1)cc(C(=O)O)n2Cc1ccccn1 [Example 538, (R)-7-(7-Chloro-10-(3-(4-chloro-3,5-dimethylphenoxy)propyl)-4-methyl-1-oxo-6-(1,3,5-trimethyl-1H-pyrazol-4-yl)-3,4-dihydropyrazino[1,2-a]indol-2(1H)-yl)-5-methoxy-1-(pyridin-2-ylmethyl)-1H-indole-2-carboxylic acid]
Ki (Mcl-1): < 0.0002 µM | GI50 [1, 2]: < 0.2 µM

COCCCn1c(C(=O)O)cc2cc(C)cc(N3C[C@@H](C)n4c(c(CCCOc5cc(C)c(Cl)c(C)c5)c5ccc(Cl)c(-c6c(C)nn(C)c6C)c54)C3=O)c21 [Example 686, (R)-7-(7-chloro-10-(3-(4-chloro-3,5-dimethylphenoxy)propyl)-4-methyl-1-oxo-6-(1,3,5-trimethyl-1H-pyrazol-4-yl)-3,4-dihydropyrazino[1,2-a]indol-2(1H)-yl)-1-(3-methoxypropyl)-5-methyl-1H-indole-2-carboxylic acid]
Ki (Mcl-1): < 0.0002 µM | GI50 [1, 2]: 0.52 µM

COc1ccc(N2C[C@@H](C)n3c(c(CCCOc4cc(C)c(Cl)c(C)c4)c4ccc(Cl)c(-c5c(C)ncnc5C)c43)C2=O)c2c1cc(C(=O)O)n2Cc1ccc(C)cn1 [Example 478, (R)-7-(7-Chloro-10-(3-(4-chloro-3,5-dimethylphenoxy)propyl)-6-(4,6-dimethylpyrimidin-5-yl)-4-methyl-1-oxo-3,4-dihydropyrazino[1,2-a]indol-2(1H)-yl)-4-methoxy-1-((5-methylpyridin-2-yl)methyl)-1H-indole-2-carboxylic acid]
Ki (Mcl-1): 0.00024 µM | GI50 [1, 2]: 0.56 µM

Cc1cc(OCCCc2c3n(c4c(-c5c(C)nc(CN6CCOCC6)nc5C)c(Cl)ccc24)[C@H](C)CN(c2cn(C)c4ccc(-c5ncn(C)n5)cc24)C3=O)cc(C)c1Cl [Example 503, (R)-7-chloro-10-(3-(4-chloro-3,5-dimethylphenoxy)propyl)-6-(4,6-dimethyl-2-(morpholinomethyl)pyrimidin-5-yl)-4-methyl-2-(1-methyl-5-(1-methyl-1H-1,2,4-triazol-3-yl)-1H-indol-3-yl)-3,4-dihydropyrazino[1,2-a]indol-1(2H)-one]
Ki (Mcl-1): 0.0037 µM | GI50 [1, 2]: < 0.2 µM

Cc1cc(OCCCc2c3n(c4c(-c5c(C)nn(C)c5C)c(Cl)ccc24)[C@H](C)CN(c2cc(OCc4cccnc4)cc4cc(C(=O)O)n(C)c24)C3=O)cc(C)c1Cl [Example 487, (R)-7-(7-Chloro-10-(3-(4-chloro-3,5-dimethylphenoxy)propyl)-4-methyl-1-oxo-6-(1,3,5-trimethyl-1H-pyrazol-4-yl)-3,4-dihydropyrazino[1,2-a]indol-2(1H)-yl)-1-methyl-5-(pyridin-3-ylmethoxy)-1H-indole-2-carboxylic acid]
Ki (Mcl-1): 0.00023 µM | GI50 [1, 2]: 0.28 µM

Cc1cc(OCCCc2c3n(c4c(-c5c(C)nn(C)c5C)c(Cl)ccc24)[C@H](C)CN(c2cn(CC4CCN(C)C4)c4ccc(C(=O)O)cc24)C3=O)cc(C)c1Cl (stereo partly drawn) [Example 534, 3-((R)-7-Chloro-10-(3-(4-chloro-3,5-dimethylphenoxy)propyl)-4-methyl-1-oxo-6-(1,3,5-trimethyl-1H-pyrazol-4-yl)-3,4-dihydropyrazino[1,2-a]indol-2(1H)-yl)-1-((1-methylpyrrolidin-3-yl)methyl)-1H-indole-5-carboxylic acid]
Ki (Mcl-1): < 0.0002 µM | GI50 [1, 2]: 0.52 µM

Cc1nnn(-c2ccc3c(n2)c(N2C[C@@H](C)n4c(c(CCCOc5cc(C)c(Cl)c(C)c5)c5ccc(Cl)c(-c6c(C)nn(C)c6C)c54)C2=O)cn3C)n1 [Example 684, (R)-7-Chloro-10-(3-(4-chloro-3,5-dimethylphenoxy)propyl)-4-methyl-2-(1-methyl-5-(5-methyl-2H-tetrazol-2-yl)-1H-pyrrolo[3,2-b]pyridin-3-yl)-6-(1,3,5-trimethyl-1H-pyrazol-4-yl)-3,4-dihydropyrazino[1,2-a]indol-1(2H)-one]
Ki (Mcl-1): 0.0006 µM | GI50 [1, 2]: 0.52 µM

(R)-7-Chloro-10-(3-(4-chloro-3,5-dimethylphenoxy)propyl)-4-methyl-2-(5-(1-methyl-1H-1,2,4-triazol-3-yl)-1-(2-morpholinoethyl)-1H-indol-3-yl)-4-(1,3,5-trimethyl-1H-pyrazol-4-yl)-3,4-dihydropyrazino[1,2-a]indol-1(2H)-one [Example 583]
Ki (Mcl-1): 0.00073 µM | GI50 ([1]; H929 cells, 72 h, Cell TiterGlo, 10% FBS, read-out: GI50 on cellular proliferation of H929 human cancer cell lines): < 0.2 µM

COCCN(C)c1cc(N2C[C@@H](C)n3c(c(CCCOc4cc(C)c(Cl)c(C)c4)c4ccc(Cl)c(-c5c(C)nn(C)c5C)c43)C2=O)c2c(c1)cc(C(=O)O)n2C [Example 682, (R)-7-(7-chloro-10-(3-(4-chloro-3,5-dimethylphenoxy)propyl)-4-methyl-1-oxo-6-(1,3,5-trimethyl-1H-pyrazol-4-yl)-3,4-dihydropyrazino[1,2-a]indol-2(1H)-yl)-5-((2-methoxyethyl)(methyl)amino)-1-methyl-1H-indole-2-carboxylic acid]
Ki (Mcl-1): < 0.0002 µM | GI50 [1, 2]: 0.34 µM

Cc1ccnc(Cn2c(C(=O)O)cc3cc(C)cc(N4C[C@@H](C)n5c(c(CCCOc6cc(C)c(Cl)c(C)c6)c6ccc(Cl)c(-c7c(C)ncnc7C)c65)C4=O)c32)c1 [Example 577, (R)-7-(7-chloro-10-(3-(4-chloro-3,5-dimethylphenoxy)propyl)-6-(4,6-dimethylpyrimidin-5-yl)-4-methyl-1-oxo-3,4-dihydropyrazino[1,2-a]indol-2(1H)-yl)-5-methyl-1-((4-methylpyridin-2-yl)methyl)-1H-indole-2-carboxylic acid]
Ki (Mcl-1): < 0.0002 µM | GI50 [1, 2]: 0.23 µM

Cc1cnc(-n2cnc(-c3ccc4c(c3)c(N3C[C@@H](C)n5c(c(CCCOc6cc(C)c(Cl)c(C)c6)c6ccc(Cl)c(-c7c(C)nn(C)c7C)c65)C3=O)cn4C)n2)nc1 [Example 700, (R)-7-Chloro-10-(3-(4-chloro-3,5-dimethylphenoxy)propyl)-4-methyl-2-(1-methyl-5-(1-(5-methylpyrimidin-2-yl)-1H-1,2,4-triazol-3-yl)-1H-indol-3-yl)-6-(1,3,5-trimethyl-1H-pyrazol-4-yl)-3,4-dihydropyrazino[1,2-a]indol-1(2H)-one]
Ki (Mcl-1): 0.00073 µM | GI50 [1, 2]: 0.38 µM

Cc1cc(OCCCc2c3n(c4c(-c5c(C)nn(C)c5C)c(Cl)ccc24)[C@H](C)CN(c2cn(CCN4CCCC4)c4ccc(C(=O)O)cc24)C3=O)cc(C)c1Cl [Example 511, (R)-3-(7-Chloro-10-(3-(4-chloro-3,5-dimethylphenoxy)propyl)-4-methyl-1-oxo-6-(1,3,5-trimethyl-1H-pyrazol-4-yl)-3,4-dihydropyrazino[1,2-a]indol-2(1H)-yl)-1-(2-(pyrrolidin-1-yl)ethyl)-1H-indole-5-carboxylic acid]
Ki (Mcl-1): < 0.0002 µM | GI50 [1, 2]: 0.3 µM
